Source: publication PMC6458850, “CXXC5 mediates growth plate senescence and is a target for enhancement of longitudinal bone growth” (Life Science Alliance, 2019)

Biological target: T1, CXXC5–DVL interaction (Homo sapiens, UniProt O14640)
T1 sequence (O14640 251-340 limits assumed): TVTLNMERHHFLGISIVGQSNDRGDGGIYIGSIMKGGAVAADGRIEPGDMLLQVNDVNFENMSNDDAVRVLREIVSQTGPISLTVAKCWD
Assay: In vitro CXXC5–DVL binding assay (FITC-tagged PTD-DBMP on DVL PDZ domain)
Settings: compound 30 μM; fluorescent intensity normalized to DMSO-treated control
Method: After the addition of 10 μM FITC-tagged PTD-DBMP to each well, each compound in the chemical library or control (DMSO) was treated to the well at a final concentration of 30 μM. The fluorescence intensity was measured using a Fluorstar Optima microplate reader (BGM Lab Technologies, Ortenberg, Germany). The binding values were calculated as a percent ratio of the fluorescent intensity normalized to the DMSO-treated control.

CXXC5-DVL interaction (%): 7.65%
Compound: O=C1Nc2ccccc2/C1=C1/Nc2ccccc2/C1=N\O [Compound 12, indirubin-3′-oxime, reference compound]
